Laboratory results from patent US20140243403A1, “TREATING COLORECTAL, PANCREATIC, AND LUNG CANCER” (The General Hospital Corporation, priority 2011, published 2014).

Columns and labels:
[1] = system: C2BBe1 cells; assay: Cellular proliferation and viability, CRC cell line panel; format: cell-based, human; settings: KRAS WT, BRAF WT, APC del, CTNNB1 WT, 3 days post-treatment
Procedure: (§1) (A) IC50 values (μM) for effects on cellular proliferation and viability with the TAK1 kinase inhibitor 5z-7-oxozeaenol in a panel of colon cancer cell lines that have been genotyped as KRAS mutant (KRAS-independent—circles or KRAS-dependent—squares), BRAF mutant (triangles) or wild-type for both KRAS and BRAF (OTHER—diamonds). Effects on growth were measured 3 days post-treatment. Data are represented as the mean of 3 independent experiments and error bars indicate the median±interquartile range. *denotes p<0.00001; n.s.—not significant.
(§2) To further validate TAK1 as a candidate therapeutic target in this context, a potent and selective TAK1 kinase inhibitor, 5Z-7-oxozeaenol (Rawlins et al., 1999), was used. Sensitivity to 5Z-7-oxozeaenol was tested in a panel of 47 colon cancer cell lines with various genotypes (FIGS. 3A and 9A). KRAS and BRAF genotypes were either procured from the Sanger Institute's Catalog of Somatic Mutations (COSMIC) or determined by targeted resequencing (Table 2). KRAS mutation status was determined as described above; the same methods were used to determine the mutation states of BRAF. BRAF exon15 was sequenced with TCATAATGCTTGCTCTGATAGGA (forward; SEQ ID NO:3) and GGCCAAAAATTTAATCAGTGG (reverse; SEQ ID NO:4).

[2] = system: CL-40 cells; assay: as above; format: cell-based, human; settings: KRAS G12D (KRAS-dependent), BRAF WT, 3 days post-treatment
Procedure: as §1, §2

[3] = system: COLO-205 cells; assay: as above; format: cell-based, human; settings: KRAS WT, BRAF V600E, APC del, CTNNB1 WT, 3 days post-treatment
Procedure: as §1, §2

[4] = system: COLO-678 cells; assay: as above; format: cell-based, human; settings: KRAS G12D (KRAS-dependent), BRAF WT, APC del, CTNNB1 WT, 3 days post-treatment
Procedure: as §1, §2

[5] = system: COLO-741 cells; assay: as above; format: cell-based, human; settings: KRAS WT, BRAF V600E, 3 days post-treatment
Procedure: as §1, §2

[6] = system: CaR-1 cells; assay: as above; format: cell-based, human; settings: KRAS WT, BRAF WT, 3 days post-treatment
Procedure: as §1, §2

[7] = system: Caco-2 cells; assay: as above; format: cell-based, human; settings: KRAS WT, BRAF V600E, CTNNB1 WT, 3 days post-treatment
Procedure: as §1, §2

[8] = system: Gp5D cells; assay: as above; format: cell-based, human; settings: KRAS G12D (KRAS-dependent), BRAF WT, APC del, CTNNB1 WT, 3 days post-treatment
Procedure: as §1, §2

[9] = system: H630 cells; assay: as above; format: cell-based, human; settings: KRAS WT, BRAF WT, APC del, CTNNB1 WT, 3 days post-treatment
Procedure: as §1, §2

[10] = system: HCT-15 cells; assay: as above; format: cell-based, human; settings: KRAS G13D, BRAF WT, APC del, CTNNB1 WT, 3 days post-treatment
Procedure: as §1, §2

[11] = system: HCT-8 cells; assay: as above; format: cell-based, human; settings: KRAS G13D, BRAF WT, APC del, CTNNB1 WT, 3 days post-treatment
Procedure: as §1, §2

[12] = system: HT55 cells; assay: as above; format: cell-based, human; settings: KRAS WT, BRAF WT, APC del, CTNNB1 WT, 3 days post-treatment
Procedure: as §1, §2

[13] = system: LoVo cells; assay: as above; format: cell-based, human; settings: KRAS G13D (KRAS-dependent), BRAF WT, APC del, CTNNB1 WT, 3 days post-treatment
Procedure: as §1, §2

[14] = system: MDST8 cells; assay: as above; format: cell-based, human; settings: KRAS WT, BRAF V600K, APC nd, CTNNB1 WT, 3 days post-treatment
Procedure: as §1, §2

[15] = system: RCM-1 cells; assay: as above; format: cell-based, human; settings: KRAS G12V (KRAS-dependent), BRAF WT, APC del, CTNNB1 WT, 3 days post-treatment
Procedure: as §1, §2

[16] = system: SKCO1 cells; assay: as above; format: cell-based, human; settings: KRAS G12V (KRAS-dependent), BRAF WT, APC del, CTNNB1 WT, 3 days post-treatment
Procedure: as §1, §2

[17] = system: SW1116 cells; assay: as above; format: cell-based, human; settings: KRAS G12A (KRAS-dependent), BRAF WT, APC del, CTNNB1 WT, 3 days post-treatment
Procedure: as §1, §2

[18] = system: SW1463 cells; assay: as above; format: cell-based, human; settings: KRAS G12C, BRAF WT, APC del, CTNNB1 WT, 3 days post-treatment
Procedure: as §1, §2

[19] = system: SW48 cells; assay: as above; format: cell-based, human; settings: KRAS WT, BRAF WT, APC WT, CTNNB1 S33Y, 3 days post-treatment
Procedure: as §1, §2

[20] = system: SW620 cells; assay: as above; format: cell-based, human; settings: KRAS G12V (KRAS-dependent), BRAF WT, APC del, CTNNB1 WT, 3 days post-treatment
Procedure: as §1, §2

[21] = system: SW837 cells; assay: as above; format: cell-based, human; settings: KRAS G12C, BRAF WT, APC del, CTNNB1 WT, 3 days post-treatment
Procedure: as §1, §2

[22] = system: T84 cells; assay: as above; format: cell-based, human; settings: KRAS G13D, BRAF WT, APC del, CTNNB1 WT, 3 days post-treatment
Procedure: as §1, §2

[23] = system: WiDR cells; assay: as above; format: cell-based, human; settings: KRAS WT, BRAF V600E, APC del, CTNNB1 WT, 3 days post-treatment
Procedure: as §1, §2

[24] = system: MCF10A; assay: Sensitivity of non-transformed epithelial cell line; format: cell-based
Procedure: (§3) (A) 5Z-7-oxozeaenol IC50 values for colorectal cancer cell lines of various genotypes as well as 2 “normal” epithelial cell lines, MCF10A and MDCK (light gray bars). Data are represented as the mean of 3 independent experiments+/−SEM.
(§4) To determine if sensitivity to TAK1 inhibition is specific to colon cancer-derived cell lines, sensitivity to 5Z-7-oxozeaenol was assessed in 5 KRAS mutant pancreatic ductal adenocarcinoma (PDAC) and 4 non-small cell lung cancer (NSCLC) cells, all of which are APC wild-type (FIG. 9B).

[25] = system: MDCK; assay: as above; format: cell-based
Procedure: as §3, §4

Which results are given for `COc1cc(O)c2c(c1)/C=C/C[C@H](O)[C@H](O)C(=O)/C=C\C[C@H](C)OC2=O` [5Z-7-oxozeaenol]?
IC50 [1]: 9320 nM; IC50 [2]: 482 nM; IC50 [3]: 1300 nM; IC50 [4]: 774 nM; IC50 [5]: 1820 nM; IC50 [6]: 6080 nM; IC50 [7]: 1440 nM; IC50 [8]: 1770 nM; IC50 [9]: 4480 nM; IC50 [10]: 8200 nM; IC50 [11]: 47300 nM; IC50 [12]: 1540 nM; IC50 [13]: 106 nM; IC50 [14]: 226 nM; IC50 [15]: 277 nM; IC50 [16]: 26 nM; IC50 [17]: 122 nM; IC50 [18]: 2420 nM; IC50 [19]: 1940 nM; IC50 [20]: 93 nM; IC50 [21]: 5950 nM; IC50 [22]: 2810 nM; IC50 [23]: 2480 nM; IC50 [24]: 5500 nM; IC50 [25]: 22000 nM
